Calls of active or inactive are those of the source.
Key:
[1] = Luminescence Cell-Based Dose Response HTS to Identify Inhibitors of 5'UTR Stem-Loop Driven Prion Protein mRNA Translation in H4 Neuroglioblastoma Cells. [Related pubchem assays: 1827 (Project Summary), 1813 (Primary HTS)]; type: functional
[2] = molecular target: T1, Hexokinase HKDC1 (Homo sapiens, UniProt Q2TB90); assay: inhibition of HKDC1 glucose phosphorylation – biochemical, W721R variant, dose response (AID 504729); type: functional
T1 sequence (Q2TB90 whole entry): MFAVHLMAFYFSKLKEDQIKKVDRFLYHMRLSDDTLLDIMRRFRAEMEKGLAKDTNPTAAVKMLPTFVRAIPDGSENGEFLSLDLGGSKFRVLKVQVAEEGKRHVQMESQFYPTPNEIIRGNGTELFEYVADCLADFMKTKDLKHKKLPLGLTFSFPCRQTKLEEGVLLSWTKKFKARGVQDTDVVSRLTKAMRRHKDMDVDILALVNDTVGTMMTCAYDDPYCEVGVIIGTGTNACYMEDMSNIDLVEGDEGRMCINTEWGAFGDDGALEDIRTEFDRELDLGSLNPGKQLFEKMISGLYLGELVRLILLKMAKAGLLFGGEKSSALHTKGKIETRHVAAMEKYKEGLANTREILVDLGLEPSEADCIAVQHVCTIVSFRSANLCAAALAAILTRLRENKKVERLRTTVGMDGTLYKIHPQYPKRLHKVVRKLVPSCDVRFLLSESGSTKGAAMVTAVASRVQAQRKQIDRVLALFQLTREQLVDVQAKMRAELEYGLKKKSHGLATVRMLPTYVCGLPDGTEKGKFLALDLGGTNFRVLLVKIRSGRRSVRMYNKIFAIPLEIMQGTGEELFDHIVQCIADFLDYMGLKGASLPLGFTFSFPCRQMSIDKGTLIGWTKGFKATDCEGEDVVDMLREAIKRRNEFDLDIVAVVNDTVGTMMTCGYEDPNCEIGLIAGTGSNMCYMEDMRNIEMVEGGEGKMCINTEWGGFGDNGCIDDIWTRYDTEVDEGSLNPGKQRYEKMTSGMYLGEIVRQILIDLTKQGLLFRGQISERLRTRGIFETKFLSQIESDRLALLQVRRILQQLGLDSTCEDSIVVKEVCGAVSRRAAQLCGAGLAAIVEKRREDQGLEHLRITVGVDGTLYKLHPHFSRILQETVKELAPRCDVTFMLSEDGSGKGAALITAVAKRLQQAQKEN

In the case of `O=C1c2ccccc2C(=O)c2[nH]c(O)nc21`, the EC50 [1] is reported as 8.19 µM (active).

For `COC(=O)c1cc(C)nc2c1C(=O)C(=O)C=C2N1CCOCC1`, the IC50 [2] was 4.41 µM (active).
